Patent publication US4372970A, “Benzofuran acetic acid esters and their arthropocidal compositions” (Shell Internationale Research Maatschappij B.V., priority 1979, dated 1983)

How the values were obtained:
Plutella xylostella = test: Knockdown of Plutella xylostella (cabbage leaf dip test); assay type: in vivo; settings: foliar, Plutella xylostella 3rd instar larvae, knockdown after 24 hours, read-out: Plutella % KD at 25.0 ppm
Text: (§1) The activities of some of the compounds of the Examples has been shown in the following tests in three species of phytophagous arthropods, namely Megoura vicae, Plutella xylostella, Tetranychus cinnabarinus.
(§2) Aqueous suspensions of test compound were made by adding a solution of test compound in AR acetone to a solution of TWEEN 80 (200 p.p.m.) in water.
A 9.0 cm square of cabbage leaf was dipped for 4 seconds in the aqueous suspension of the test compound, and allowed to dry. The leaf was placed on filter paper in a Petri dish (9.0 cm). Five 3rd instar larvae were placed on the leaf, and the dish was placed in a polythene bag containing a wet cotton-wool pad. Knockdown was recorded after 24 hours.

Musca domestica [1] = test: Topical activity against Musca domestica with synergist piperonyl butoxide (24 hours, LC50, relative to Resmethrin); assay type: in vivo; settings: Musca domestica 3-day old adult females, with 0.5% w/v piperonyl butoxide, from LC50
Experimental: (§3) The insecticidal activities of the compounds of the Examples has been shown by the following tests in four species of insects, namely Aedes aegypti, Musca domestica, Blattella germanica, and Tribolium castaneum.
(§4) (i) A 1 μl drop of a solution of test compound in AR acetone (high purity acetone) was applied to the dorsal thorax of 3-day old adult females. Knockdown was recorded after 24 hours. Solutions of different concentration were tested from which the concentration of solution and therefore the amount of compound which gives 50% kill (LC50) was determined.
(ii) Similar tests were carried out with the amendment that to each test solution, 0.5% w/v of commercial insecticide synergist, piperonyl butoxide, was added.
(§5) The results are all expressed as activities relative to the activity of Resmathrin (assigned activity=100), determined by the methods described. [formula]

Megoura vicae = test: Knockdown of Megoura vicae (dip test); assay type: in vivo; settings: Megoura vicae adults, knockdown after 24 hours
Text: as §1, §2
Adult insects were dipped individually for 4 seconds in the aqueous suspension of test compound and then placed on a filter paper in a Petri dish (9.0 cm diameter) with a p.t.f.e. rim. A 5.0 cm long piece of broad bean stem was added and the lid was put on. Knockdown was recorded after 24 hours.

Aedes aegypti = test: Larvicidal activity against Aedes aegypti (kill after 24 hours, LC50, relative to Resmethrin); assay type: in vivo; settings: Aedes aegypti 3 day old larvae, from LC50
Experimental: as §3
A 0.2 cm^3 sample of a solution of test compound in AR acetone was applied to water (200 cm^3) containing 20 (3 day old) larvae. Kill was recorded after 24 hours. Solutions of different concentration were tested from which the concentration of solution which gives 50% kill (LC50) was determined.
as §5

Tetranychus cinnabarinus = test: Activity against Tetranychus cinnabarinus (dwarf French bean leaf dip test); assay type: in vivo; settings: foliar, Tetranychus cinnabarinus adult mites, 48 hours, read-out: Tetranychus % KD at 500.0 ppm
Text: as §1, §2
The two primary leaves of dwarf French beans were reduced to 2.5 cm squares, and they were infested with ca. 20 adult mites. The leaves were then dipped for 4 seconds in the aqueous suspension of the test compound and allowed to dry. Adult mortality was recorded after 48 hours.

Tribolium castaneum = test: Topical activity against Tribolium castaneum (knockdown after 48 hours, LD50, relative to Resmethrin); assay type: in vivo; settings: Tribolium castaneum adults, from LD50
Experimental: as §3
A 1 μl drop of a solution of test compound in AR acetone was applied topically to adult insects. Knockdown was recorded after 48 hours. Solutions of different concentrations were tested from which the concentration of solution which gives 50% knockdown (LD50) was determined.
as §5

Blattella germanica = test: Topical activity against Blattella germanica (24 hours, LC50, relative to Resmethrin); assay type: in vivo; settings: Blattella germanica 1-4 week old adult males, from LC50
Experimental: as §3
A 2 μl drop of a solution of the test compound in AR acetone was applied between the rear coxae of 1-4 week old adult males. Knockdown was recorded after 24 hours. Solutions of different concentration were tested from which the concentration of solution which gives 50% kill (LC50) was determined.
as §5

Musca domestica [2] = test: Topical activity against Musca domestica, compound alone (24 hours, LC50, relative to Resmethrin); assay type: in vivo; settings: Musca domestica 3-day old adult females, without synergist, from LC50
Experimental: as §3, §4, §5

[3] = Photostability of a deposit exposed to a light source; assay type: physicochemical; settings: times greater than Resmethrin
Text: Photostability is an important feature when the insecticide is applied to foliage. […] A deposit of selected Examples and Resmethrin was exposed to a light source and tested at increasing time intervals.

Compound	Megoura % KD at 1.0 ppm (Megoura vicae)	photostability half-life relative to Resmethrin [3]	mortality at 25 ppm (Plutella xylostella)	Activity Relative to Resmethrin = 100, Musca with Synergist (Musca domestica [1])	Activity Relative to Resmethrin = 100, Aedes (Aedes aegypti)	mortality at 500 ppm (Tetranychus cinnabarinus)	Activity Relative to Resmethrin = 100, Tribolium (Tribolium castaneum)	Activity Relative to Resmethrin = 100, Blattella (Blattella germanica)	Activity Relative to Resmethrin = 100, Musca Alone (Musca domestica [2])
CC(C)C(C(=O)OCc1cccc(Oc2ccccc2)c1)c1ccc2ccoc2c1 (stereo not drawn) [Example 1, m-Phenoxybenzyl α-isopropylbenzofuran-6-acetate]	63.7%	–	97.5%	87	182	65.5%	102.9	197	88
CC(C)C(C(=O)OC(C#N)c1cccc(Oc2ccccc2)c1)c1ccc2ccoc2c1 (stereo not drawn) [Example 2, α-Cyano-m-phenoxybenzyl α-isopropylbenzofuran-6-acetate]	97.5%	17.5 times	97.5%	606	286	83.7%	583	459	123
CC(C)C(C(=O)OCc1cccc(Oc2ccccc2)c1)c1ccc2sccc2c1 (stereo not drawn) [Example 3, m-Phenoxybenzyl α-isopropylbenzo(b)thiophene-5-acetate]	61.25%	–	47.5%	100	6.5	76.7%	29.2	62	17
CC(C)C(C(=O)OC(C#N)c1cccc(Oc2ccccc2)c1)c1ccc2sccc2c1 (stereo not drawn) [Example 4, α-Cyano-m-phenoxybenzyl α-isopropylbenzo(b)thiophene-5-acetate]	–	21.5 times	–	400	105	–	–	62	16
CC(C)C(C(=O)OCc1cccc(Oc2ccccc2)c1)c1cccc2occc12 (stereo not drawn) [Example 5, m-Phenoxybenzyl α-isopropylbenzofuran-4-acetate]	32.5%	–	57.5%	27	211	33.2%	50	20.7	9
CC(C)C(C(=O)OCc1cccc(Oc2ccccc2)c1)c1ccc2c(Cl)coc2c1 (stereo not drawn) [Example 6, m-Phenoxybenzyl 3-chloro-α-isopropylbenzofuran-6-acetate]	–	–	–	110	151	–	80.4	–	20
CC(C)C(C(=O)OC(C#N)c1cccc(Oc2ccccc2)c1)c1ccc2c(Cl)coc2c1 (stereo not drawn) [Example 7, α-Cyano-m-phenoxybenzyl 3-chloro-α-isopropylbenzofuran-6-acetate]	98.3%	–	100%	6060	250	88.8%	411	1240	133

Second part, led by results:

Megoura % KD at 1.0 ppm (Megoura vicae)	photostability half-life relative to Resmethrin [3]	Compound	mortality at 25 ppm (Plutella xylostella)	Activity Relative to Resmethrin = 100, Musca with Synergist (Musca domestica [1])	Activity Relative to Resmethrin = 100, Aedes (Aedes aegypti)	mortality at 500 ppm (Tetranychus cinnabarinus)	Activity Relative to Resmethrin = 100, Tribolium (Tribolium castaneum)	Activity Relative to Resmethrin = 100, Blattella (Blattella germanica)	Activity Relative to Resmethrin = 100, Musca Alone (Musca domestica [2])
66.9%	–	CC(C)C(C(=O)OC(C#N)c1cccc(Oc2ccccc2)c1)c1cccc2occc12 (stereo not drawn) [Example 8, α-Cyano-m-phenoxybenzyl α-isopropylbenzofuran-4-acetate]	87.5%	926	108	100%	194	206	125
93.75%	–	CC(C)C(C(=O)OC(C#N)c1cccc(Oc2ccccc2)c1)c1ccc2occc2c1 (stereo not drawn) [Example 9, α-Cyano-m-phenoxybenzyl α-isopropylbenzofuran-5-acetate]	90%	333	174	81.7%	389	1378	186
0%	–	CC(C)C(C(=O)OC(C#N)c1cccc(Oc2ccccc2)c1)c1ccc2c(c1)CCO2 (stereo not drawn) [Example 10, α-Cyano-m-phenoxybenzyl 2,3-dihydro-α-isopropylbenzofuran-5-acetate]	–	575	286	< 20%	159	207	18
35%	–	CC(C)C(C(=O)OC(C#N)c1cccc(Oc2ccccc2)c1)c1ccc2cc(Br)oc2c1 (stereo not drawn) [Example 11, α-Cyano-m-phenoxybenzyl 2-bromo-α-isopropylbenzofuran-6-acetate]	–	417	160	< 20%	88	207	68
15%	–	CC(C)C(C(=O)OC(C#N)c1cccc(Oc2ccccc2)c1)c1ccc(Cl)c2occc12 (stereo not drawn) [Example 12, α-Cyano-m-phenoxybenzyl 7-chloro-α-isopropylbenzofuran-4-acetate]	–	454	417	< 10%	100	207	140
86.6%	–	CC(C)C(C(=O)OC(C#N)c1cccc(Oc2ccccc2)c1)c1ccc(Cl)c2oc(Br)cc12 (stereo not drawn) [Example 13, α-Cyano-m-phenoxybenzyl 2-bromo-7-chloro-α-isopropylbenzofuran-4-acetate]	–	417	267	< 10%	< 2	< 10	10
93.3%	–	Cc1oc2cc(C(C(=O)OC(C#N)c3cccc(Oc4ccccc4)c3)C(C)C)ccc2c1C (stereo not drawn) [Example 14, α-Cyano-m-phenoxybenzyl 2,3-dimethyl-α-isopropylbenzofuran-6-acetate]	–	179	200	46.7%	< 17.5	62	12
90%	–	Cc1oc2cc(C(C(=O)OCc3cccc(Oc4ccccc4)c3)C(C)C)ccc2c1C (stereo not drawn) [Example 15, m-Phenoxybenzyl 2,3-dimethyl-α-isopropylbenzofuran-6-acetate]	–	24	118	100%	4.7	< 10	1
